# According to ChEMBL document CHEMBL1201862, “PubChem BioAssay data set” (2004):
#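 A five-concentration, 48-hour dose response in 96-well plates underlies each endpoint, interpolated linearly between surrounding concentrations. The concentration for 50% growth inhibition is given as GI50.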 Calls of active or inactive are those of the source. Cut-off read from the data, not from the text of the source: active = GI50 up to about 1.1 µM and inactive = higher.
# Columns and labels:
# Assay in all cases: NCI tumour cell line growth inhibition, 48 h
# [1] = tested on: BT-549
# [2] = tested on: MDA-MB-231
# [3] = tested on: EKVX
# [4] = tested on: RPMI-8226
# [5] = tested on: MDA-N
# [6] = tested on: SN12C
# [7] = tested on: SK-MEL-5
# [8] = tested on: K562
# [9] = tested on: SF-539
# [10] = tested on: A498
# [11] = tested on: TK-10
# [12] = tested on: OVCAR-4
# [13] = tested on: M14
# [14] = tested on: DU-145
# [15] = tested on: KM12
# [16] = tested on: PC-3
# [17] = tested on: MOLT-4
# [18] = tested on: 786-0
# [19] = tested on: OVCAR-8
# [20] = tested on: T47D
# [21] = tested on: CAKI-1
# [22] = tested on: NCI/ADR-RES
# [23] = tested on: UACC-62
# [24] = tested on: ACHN
# [25] = tested on: NCI-H460
# [26] = tested on: IGROV-1
# [27] = tested on: HOP-62
# [28] = tested on: HCT-15
# [29] = tested on: SF-295
# [30] = tested on: RXF 393
# [31] = tested on: LOX IMVI
# [32] = tested on: OVCAR-3
# [33] = tested on: HT-29
# [34] = tested on: SNB-19
# [35] = tested on: A549
# [36] = tested on: SNB-75
# [37] = tested on: HCT-116
# [38] = tested on: SW-620
# [39] = tested on: CCRF-CEM
# [40] = tested on: SK-MEL-28
# [41] = tested on: NCI-H226
# [42] = tested on: U-251
# [43] = tested on: NCI-H23
# [44] = tested on: SK-OV-3
# [45] = tested on: HL-60
# [46] = tested on: MCF7
# [47] = tested on: UACC-257
# [48] = tested on: OVCAR-5
# [49] = tested on: COLO 205
# [50] = tested on: MDA-MB-435
smiles,measurement,setting,value
CCOP(=O)(/C=C\n1cnc2c(=O)n(C(C)=O)c(N)nc21)OCC,GI50,[1],> 100 µM (inactive)
same,GI50,[2],69.7 µM (inactive)
same,GI50,[3],> 100 µM (inactive)
same,GI50,[4],> 100 µM (inactive)
same,GI50,[5],> 100 µM (inactive)
same,GI50,[6],> 100 µM (inactive)
same,GI50,[7],> 100 µM (inactive)
same,GI50,[8],> 100 µM (inactive)
same,GI50,[9],> 100 µM (inactive)
same,GI50,[10],> 100 µM (inactive)
same,GI50,[11],> 100 µM (inactive)
same,GI50,[12],> 100 µM (inactive)
same,GI50,[13],> 100 µM (inactive)
same,GI50,[14],> 100 µM (inactive)
same,GI50,[15],> 100 µM (inactive)
same,GI50,[16],22.5 µM (inactive)
same,GI50,[17],> 100 µM (inactive)
same,GI50,[18],> 100 µM (inactive)
same,GI50,[19],> 100 µM (inactive)
same,GI50,[20],> 100 µM (inactive)
same,GI50,[21],> 100 µM (inactive)
same,GI50,[22],> 100 µM (inactive)
same,GI50,[23],> 100 µM (inactive)
same,GI50,[24],> 100 µM (inactive)
same,GI50,[25],> 100 µM (inactive)
same,GI50,[26],> 100 µM (inactive)
same,GI50,[27],> 100 µM (inactive)
same,GI50,[28],> 100 µM
same,GI50,[29],> 100 µM (inactive)
same,GI50,[30],> 100 µM (inactive)
same,GI50,[31],> 100 µM (inactive)
same,GI50,[32],> 100 µM (inactive)
same,GI50,[33],> 100 µM (inactive)
same,GI50,[34],> 100 µM (inactive)
same,GI50,[35],> 100 µM (inactive)
same,GI50,[36],> 100 µM (inactive)
same,GI50,[37],> 100 µM (inactive)
same,GI50,[38],> 100 µM (inactive)
same,GI50,[39],> 100 µM (inactive)
same,GI50,[40],> 100 µM (inactive)
same,GI50,[41],> 100 µM (inactive)
same,GI50,[42],> 100 µM (inactive)
same,GI50,[43],> 100 µM (inactive)
same,GI50,[44],> 100 µM (inactive)
same,GI50,[45],> 100 µM (inactive)
same,GI50,[46],> 100 µM (inactive)
same,GI50,[47],> 100 µM (inactive)
same,GI50,[48],> 100 µM (inactive)
same,GI50,[49],> 100 µM (inactive)
same,GI50,[50],> 100 µM (inactive)
